Test results: ChEMBL document CHEMBL1156031, “Tetrahydrocarbazole-based serotonin reuptake inhibitor/dopamine D2 partial agonists for the potential treatment of schizophrenia” (Bioorg Med Chem Lett, 2009)
Blank lines part the entries; values can stand above or below the compound they belong to. The source made the active and inactive calls. The calls are words filed in the database; no cut-off is given here.

Key:
[1] = biological target: Sodium-dependent serotonin transporter (Homo sapiens, UniProt P31645); test: biochemical; type: cell-based, HEK293
Chain of Sodium-dependent serotonin transporter (P31645 whole entry): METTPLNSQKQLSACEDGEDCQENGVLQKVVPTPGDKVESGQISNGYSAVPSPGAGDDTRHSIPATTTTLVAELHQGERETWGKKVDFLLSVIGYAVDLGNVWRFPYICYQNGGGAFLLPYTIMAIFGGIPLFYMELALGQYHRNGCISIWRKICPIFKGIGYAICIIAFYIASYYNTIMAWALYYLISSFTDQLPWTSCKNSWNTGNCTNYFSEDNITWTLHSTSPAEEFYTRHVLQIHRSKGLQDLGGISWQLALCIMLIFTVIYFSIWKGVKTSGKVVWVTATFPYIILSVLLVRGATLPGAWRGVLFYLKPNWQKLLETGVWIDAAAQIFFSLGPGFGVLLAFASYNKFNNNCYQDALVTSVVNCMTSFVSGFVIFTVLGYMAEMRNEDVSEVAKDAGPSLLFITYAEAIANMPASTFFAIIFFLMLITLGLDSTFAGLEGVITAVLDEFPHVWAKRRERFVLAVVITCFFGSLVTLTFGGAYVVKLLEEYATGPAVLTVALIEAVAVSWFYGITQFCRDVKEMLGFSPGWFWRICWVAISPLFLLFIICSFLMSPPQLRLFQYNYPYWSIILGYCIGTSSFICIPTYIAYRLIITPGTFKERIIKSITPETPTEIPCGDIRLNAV

[2] = biological target: T1, D(2) dopamine receptor (Homo sapiens, UniProt P14416); test: Displacement of [3H]spiperone from D2 receptor
T1 sequence (P14416 whole entry): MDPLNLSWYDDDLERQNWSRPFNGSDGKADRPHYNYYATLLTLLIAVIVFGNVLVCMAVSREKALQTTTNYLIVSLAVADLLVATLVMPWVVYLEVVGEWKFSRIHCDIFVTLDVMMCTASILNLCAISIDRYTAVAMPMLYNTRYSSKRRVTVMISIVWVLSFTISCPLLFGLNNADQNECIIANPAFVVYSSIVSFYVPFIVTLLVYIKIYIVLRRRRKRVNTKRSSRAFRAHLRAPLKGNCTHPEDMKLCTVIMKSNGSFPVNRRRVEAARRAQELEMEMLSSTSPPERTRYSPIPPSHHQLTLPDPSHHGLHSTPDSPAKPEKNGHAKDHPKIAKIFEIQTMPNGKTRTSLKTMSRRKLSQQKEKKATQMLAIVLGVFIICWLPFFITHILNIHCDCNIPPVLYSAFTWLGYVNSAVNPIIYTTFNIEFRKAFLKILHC

[3] = biological target: T1, D(2) dopamine receptor; test: Ratio of drug to quinpirole for agonist activity at D2 receptor assessed as change in intracellular cAMP level by cell based assay; type: functional
[4] = biological target: T2, 5-hydroxytryptamine receptor 2B (Homo sapiens, UniProt P41595); test: Agonist activity at human recombinant 5-HT2B receptor expressed in CHO-K1 cells assessed as increase in intracellular calcium level by FLIPR assay; type: functional, cell-based
T2 sequence (P41595 whole entry): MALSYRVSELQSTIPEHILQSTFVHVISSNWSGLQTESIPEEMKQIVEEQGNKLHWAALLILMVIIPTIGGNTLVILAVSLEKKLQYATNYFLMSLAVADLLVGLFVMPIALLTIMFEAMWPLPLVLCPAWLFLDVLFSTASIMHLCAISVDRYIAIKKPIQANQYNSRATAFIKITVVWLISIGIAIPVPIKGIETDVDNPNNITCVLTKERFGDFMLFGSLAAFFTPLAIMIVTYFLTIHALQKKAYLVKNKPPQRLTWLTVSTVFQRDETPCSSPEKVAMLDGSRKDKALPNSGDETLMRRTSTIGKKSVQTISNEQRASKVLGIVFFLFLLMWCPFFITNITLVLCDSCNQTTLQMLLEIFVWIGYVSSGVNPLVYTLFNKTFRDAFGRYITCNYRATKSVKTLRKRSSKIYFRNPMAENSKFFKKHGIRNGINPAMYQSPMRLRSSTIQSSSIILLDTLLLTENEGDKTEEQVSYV

[5] = Selectivity of Ki for human serotonin transporter to Ki for rat alpha1 adrenergic receptor
[6] = biological target: T2, 5-hydroxytryptamine receptor 2B; test: Binding affinity to 5-HT2B receptor
[7] = biological target: 5-hydroxytryptamine receptor 2A (Homo sapiens, UniProt P28223); test: Agonist activity at 5-HT2A receptor; type: functional
Chain of 5-hydroxytryptamine receptor 2A (P28223 whole entry): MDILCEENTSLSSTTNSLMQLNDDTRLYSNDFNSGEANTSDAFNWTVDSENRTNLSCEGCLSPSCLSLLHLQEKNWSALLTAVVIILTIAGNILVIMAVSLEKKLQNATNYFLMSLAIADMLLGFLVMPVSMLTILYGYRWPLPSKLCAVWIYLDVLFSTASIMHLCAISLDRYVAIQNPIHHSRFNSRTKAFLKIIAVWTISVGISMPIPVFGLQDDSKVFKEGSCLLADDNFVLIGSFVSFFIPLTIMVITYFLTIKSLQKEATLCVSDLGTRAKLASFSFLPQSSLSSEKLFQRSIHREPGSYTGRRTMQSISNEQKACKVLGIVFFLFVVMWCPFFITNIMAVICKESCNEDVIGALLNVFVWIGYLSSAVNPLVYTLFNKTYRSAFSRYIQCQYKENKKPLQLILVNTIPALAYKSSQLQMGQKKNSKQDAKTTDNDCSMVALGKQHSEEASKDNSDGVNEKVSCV

[8] = biological target: T3, Adrenergic receptor alpha-1 (Rattus norvegicus, UniProt P15823+P23944+P43140); test: Binding affinity to alpha1 adrenergic receptor in rat brain membrane by radioligand binding assay; type: cell membranes
T3 sequence (P15823 whole entry): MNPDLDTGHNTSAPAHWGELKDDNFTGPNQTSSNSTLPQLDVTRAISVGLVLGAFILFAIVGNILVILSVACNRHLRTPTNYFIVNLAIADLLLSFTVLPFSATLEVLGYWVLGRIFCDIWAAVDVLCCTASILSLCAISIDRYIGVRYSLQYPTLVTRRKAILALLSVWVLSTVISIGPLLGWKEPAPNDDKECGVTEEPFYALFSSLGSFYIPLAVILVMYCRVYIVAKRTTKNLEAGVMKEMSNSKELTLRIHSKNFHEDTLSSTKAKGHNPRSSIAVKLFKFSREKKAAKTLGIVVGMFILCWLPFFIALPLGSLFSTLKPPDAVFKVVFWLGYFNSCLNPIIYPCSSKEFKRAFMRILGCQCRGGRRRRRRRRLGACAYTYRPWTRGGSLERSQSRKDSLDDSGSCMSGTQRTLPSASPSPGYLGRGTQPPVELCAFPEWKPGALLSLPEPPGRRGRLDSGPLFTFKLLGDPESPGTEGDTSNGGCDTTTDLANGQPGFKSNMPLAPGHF
T3 sequence (P23944 whole entry): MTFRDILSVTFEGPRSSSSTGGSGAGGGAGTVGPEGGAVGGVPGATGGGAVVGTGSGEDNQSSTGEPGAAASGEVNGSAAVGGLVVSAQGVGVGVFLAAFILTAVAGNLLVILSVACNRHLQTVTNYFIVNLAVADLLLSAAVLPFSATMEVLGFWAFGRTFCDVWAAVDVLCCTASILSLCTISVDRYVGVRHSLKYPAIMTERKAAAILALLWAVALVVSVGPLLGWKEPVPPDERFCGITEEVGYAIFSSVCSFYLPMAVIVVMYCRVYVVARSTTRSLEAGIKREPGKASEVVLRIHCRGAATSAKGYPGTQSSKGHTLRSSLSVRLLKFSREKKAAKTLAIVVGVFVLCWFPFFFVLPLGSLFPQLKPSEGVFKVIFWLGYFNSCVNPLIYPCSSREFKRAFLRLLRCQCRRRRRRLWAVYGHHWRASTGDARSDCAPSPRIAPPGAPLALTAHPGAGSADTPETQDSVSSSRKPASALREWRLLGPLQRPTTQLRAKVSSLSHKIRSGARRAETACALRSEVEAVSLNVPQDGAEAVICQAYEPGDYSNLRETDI
T3 sequence (P43140 whole entry): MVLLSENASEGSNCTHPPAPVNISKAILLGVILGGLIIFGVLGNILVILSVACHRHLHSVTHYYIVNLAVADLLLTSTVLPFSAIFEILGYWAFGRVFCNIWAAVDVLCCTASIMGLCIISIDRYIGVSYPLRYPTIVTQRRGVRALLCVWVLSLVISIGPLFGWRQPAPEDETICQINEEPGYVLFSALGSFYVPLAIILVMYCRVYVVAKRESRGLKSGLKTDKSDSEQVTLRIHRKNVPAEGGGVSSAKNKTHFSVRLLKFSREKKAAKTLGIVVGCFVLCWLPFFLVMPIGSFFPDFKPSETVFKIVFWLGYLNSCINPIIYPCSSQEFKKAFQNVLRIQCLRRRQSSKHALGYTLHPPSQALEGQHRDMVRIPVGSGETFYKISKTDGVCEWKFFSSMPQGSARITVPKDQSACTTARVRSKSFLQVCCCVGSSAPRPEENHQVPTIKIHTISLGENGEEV

[9] = tested on: Mus musculus; test: Inhibition of catalepsy in mouse at 10 mg/kg, ip after 90 mins; type: functional
[10] = tested on: Rattus norvegicus; test: Behavioral effect in CAR rat model assessed as reduction of avoidance response at 10 mg/kg, ip; type: functional, organism-based; parameters: dose 10 mg/kg
[11] = tested on: Rattus norvegicus; test: Behavioral effect in CAR rat model assessed as reduction of avoidance response at 10 mg/kg, po; type: functional, organism-based; parameters: dose 10 mg/kg
[12] = tested on: Rattus norvegicus; test: Behavioral effect in CAR rat model assessed as increase in escape response at 10 mg/kg, ip; type: functional, organism-based; parameters: dose 10 mg/kg
[13] = tested on: Rattus norvegicus; test: Behavioral effect in CAR rat model assessed as increase in escape response at 10 mg/kg, po; type: functional, organism-based; parameters: dose 10 mg/kg
[14] = tested on: Mus musculus; test: Antipsychotic activity in ip dosed AIC mouse model assessed as climbing response; type: functional
[15] = tested on: Mus musculus; test: Antipsychotic activity in ip dosed AIC mouse model assessed as stereotype effects; type: functional

Compound: O=c1[nH]c2cccc(N3CCN(CC4CCc5[nH]c6ccc(F)cc6c5C4)CC3)c2o1 (single isomer, unassigned; 30)
Ki [1]: 32 nM
Ki [2]: 60 nM

Compound: O=C1Cc2c(cccc2N2CCN(CC3CCc4[nH]c5ccc(F)cc5c4C3)CC2)N1 (stereo not given)
Ki [1]: 1140 nM
Ki [2]: 15 nM

Compound: O=c1[nH]c2cccc(OC3CCN(CCC4CCc5[nH]c6ccc(F)cc6c5C4)CC3)c2o1 (stereo not given)
Ki [1]: 1200 nM
Ki [2]: 310 nM

Compound: O=c1[nH]c2cccc(N3CCN(CCCC4CCc5c([nH]c6ccc(F)cc56)C4)CC3)c2o1 (stereo not given)
Ki [1]: 62 nM
Ki [2]: 50 nM

Compound: O=c1[nH]c2cccc(OC3CCN(CC4CCc5[nH]c6ccc(F)cc6c5C4)CC3)c2o1 (stereo not given)
Ki [1]: 3 nM
Ki [2]: 140 nM

Compound: O=c1[nH]c2cccc(OCC3CCN(CC4CCc5[nH]c6ccc(F)cc6c5C4)CC3)c2o1 (stereo not given)
Ki [1]: 0.4 nM
Ki [2]: 28 nM
Ratio [3]: < 0.1
Ki [6]: 110 nM
Activity [4]: inactive
Ki [8]: 130 nM

Compound: O=c1[nH]c2cccc(OCC3CCN(CCC4CCc5[nH]c6ccc(F)cc6c5C4)CC3)c2o1 (stereo not given)
Ki [1]: 10 nM
Ki [2]: 720 nM

Compound: O=c1[nH]c2cccc(N3C[C@H]4C[C@@H]3CN4CC3CCc4[nH]c5ccc(F)cc5c4C3)c2o1 (stereo not given in full) [listing 1 of 3 here]
Ratio [3]: 0.3
Activity [4]: inactive
Ratio Ki [5]: 10

Compound: O=c1[nH]c2cccc(N3C[C@H]4C[C@@H]3CN4CC3CCc4[nH]c5ccc(F)cc5c4C3)c2o1 (stereo not given in full) [listing 2 of 3 here]
Ki [1]: 460 nM
Ki [2]: 12 nM

Compound: O=c1[nH]c2cccc(N3CCN(CC4CCc5[nH]c6ccc(F)cc6c5C4)CC3)c2o1 (single isomer, unassigned; 31) [listing 1 of 2 here]
Ratio [3]: 0.6
Activity [4]: inactive
Activity [9]: inactive
Activity [10]: Active
Activity [11]: Active
Activity [12]: Active
Activity [13]: Active

Compound: O=c1[nH]c2cccc(CN3CCN(CC4CCc5[nH]c6ccc(F)cc6c5C4)CC3)c2o1 (stereo not given)
Ki [1]: 41 nM
Ki [2]: 120 nM

Compound: O=c1[nH]c2cccc(N3CCN(CC4CCc5c([nH]c6ccc(F)cc56)C4)CC3)c2o1 (stereo not given)
Ki [1]: 62 nM
Ki [2]: 220 nM

Compound: O=c1[nH]c2cccc(N3C[C@H]4C[C@@H]3CN4CC3CCc4[nH]c5ccc(F)cc5c4C3)c2o1 (stereo not given in full) [listing 3 of 3 here]
Ki [1]: 8 nM
Ki [2]: 14 nM
Ki [6]: 165 nM
Ki [7]: 1800 nM
Ki [8]: 65 nM
ED50 [14]: 2.3 mg/kg
ED50 [15]: > 5 mg/kg
inhibition in vivo at 10 mg/kg ([9]; 1.5 h, route intraperitoneal): 48%

Compound: O=c1[nH]c2cccc(N3CCN(CC4CCc5[nH]c6ccc(F)cc6c5C4)CC3)c2o1 (single isomer, unassigned; 31) [listing 2 of 2 here]
Ki [1]: 22 nM
Ki [2]: 17 nM
Ki [6]: 680 nM
Ki [7]: 130 nM
Ki [8]: 220 nM
ED50 [14]: 0.5 mg/kg
ED50 [15]: > 1 mg/kg

The remaining lines, values ahead:

Ratio [3]: 0.3
Activity [4]: inactive
Ratio Ki [5]: 10
Compound: O=C1Cc2c(ccc3c2OC[C@H](CNCCCC2CCc4c([nH]c5ccc(F)cc45)C2)O3)N1 (stereo in doubt; 23) [listing 1 of 2 here]

Ki [1]: 7 nM
Ki [2]: 3 nM
Ki [6]: 130 nM
Ki [7]: 2 nM
Ki [8]: 0.5 nM
Compound: O=C1Cc2c(ccc3c2OC[C@H](CNCC2CCc4[nH]c5ccc(F)cc5c4C2)O3)N1 (single isomer, unassigned) [listing 1 of 2 here]

Ratio [3]: 0.3
Activity [4]: inactive
Ratio Ki [5]: 10
Compound: O=C1Cc2c(ccc3c2OC[C@H](CNCC2CCc4[nH]c5ccc(F)cc5c4C2)O3)N1 (single isomer, unassigned) [listing 2 of 2 here]

Ratio [3]: 0.3
Activity [4]: inactive
Ratio Ki [5]: 10
Compound: O=C1Cc2c(ccc3c2OC[C@H](CNCCCC2CCc4c([nH]c5ccc(F)cc45)C2)O3)N1 (stereo in doubt; 22) [listing 1 of 2 here]

Ki [1]: 4 nM
Ki [2]: 45 nM
Ki [6]: 400 nM
Ki [8]: 22 nM
Compound: O=C1Cc2c(ccc3c2OC[C@H](CNCCCC2CCc4c([nH]c5ccc(F)cc45)C2)O3)N1 (stereo in doubt; 23) [listing 2 of 2 here]

Ratio [3]: 0.4
Activity [4]: inactive
Ratio Ki [5]: 10
Compound: O=C1Cc2c(ccc3c2OC[C@H](CNCC2CCc4[nH]c5ccc(F)cc5c4C2)O3)N1 (stereo in doubt; 25) [listing 1 of 2 here]

Ki [1]: 15 nM
Ki [2]: 50 nM
Ki [6]: 610 nM
Ki [7]: 6 nM
Ki [8]: 54 nM
Compound: O=C1Cc2c(ccc3c2OC[C@H](CNCCCC2CCc4c([nH]c5ccc(F)cc45)C2)O3)N1 (stereo in doubt; 22) [listing 2 of 2 here]

Ki [1]: 25 nM
Ki [2]: 100 nM
Compound: O=C1Cc2c(ccc3c2OC[C@H](CNCC2CCc4c([nH]c5ccc(F)cc45)C2)O3)N1 (stereo not given in full)

Ki [1]: 5200 nM
Ki [2]: 36 nM
Compound: O=C1Cc2c(ccc3c2OC[C@H](CNCCC2CCc4c([nH]c5ccc(F)cc45)C2)O3)N1 (stereo not given in full)

Ki [1]: 1 nM
Ki [2]: 3 nM
Ki [6]: 6 nM
Ki [7]: 2 nM
Ki [8]: 0.72 nM
Compound: O=C1Cc2c(ccc3c2OC[C@H](CNCC2CCc4[nH]c5ccc(F)cc5c4C2)O3)N1 (stereo in doubt; 25) [listing 2 of 2 here]

Ki [1]: 4700 nM
Ki [2]: 15 nM
Compound: O=C1Cc2c(cccc2N2CCN(CCC3CCc4[nH]c5ccc(F)cc5c4C3)CC2)N1 (stereo not given)

Ki [1]: 24 nM
Ki [2]: 24 nM
Compound: O=C1Cc2c(ccc3c2OC[C@H](CNCCC2CCc4[nH]c5ccc(F)cc5c4C2)O3)N1 (stereo not given in full) [listing 1 of 2 here]

Ki [1]: 21 nM
Ki [2]: 24 nM
Compound: O=C1Cc2c(ccc3c2OC[C@H](CNCCC2CCc4[nH]c5ccc(F)cc5c4C2)O3)N1 (stereo not given in full) [listing 2 of 2 here]
